Assay results taken from patent EP0540143B1, “Compounds and methods for inhibition of HIV and related viruses” (priority 1991, dated 1993).
Values joined by “and” are separate entries in the source; they are usually repeats but may differ in a detail not shown here. Identical values can stand only once.

Key:
[1] = titration pKa (66% DMF/H2O)
recombinant HIV-RT = recombinant HIV-RT (Human immunodeficiency virus type 1 group M subtype B, UniProt P04585); assay: Test I (HIVRT (rAdt)), direct inhibition of recombinant HIV-RT; type: biochemical
Method: The compounds were tested for direct inhibitory activity on HIV-RT in a volume of […] recombinant HIV-RT (diluted in virus disruption buffer to give 200.000 cpm).
100 mM Tris-HCl pH 7.6, 100 mM KCl, 4 mM MgCl2, 4 mM DTT, 275 mg/ml BSA, 0.5 mg (rA)n(dT)12-18 and 0.3 mM ^3H- dTTP (specific activity […]). After 60 minutess of incubation 40 ml in duplicate were spotted on paper discs and washed in 5% TCA. After rinsing the paper discs in ethanol they were dried and counted in scintillation fluid.

HIV-1 [2] = assay: Test E (HIV-1 RT), RT activity in supernatant of infected MT-4/H9 cells; type: cell-based; settings: Human immunodeficiency virus 1, H9, Test E
Method: (§1) Tests E, F, G, H (HIV-IRT, HIV-2RT, SIVRT, no virus)
(§2) MT-4/H9-cells are adjusted to 2x10^5 cells/ml medium (RPMI 1640, 5% FCS, penicillin/streptomycin) and seeded into microplates (96 wells/plate) […] cell suspension/well giving 2 x 10^4 cells/well. The compound to be tested is made 10 mg/ml in DMSO = stock solution (stored at -20°C). The compound dissolved in DMSO is diluted 25 times in medium to give 400 mg/ml. Further dilutions to 40 mg/ml and 4 mg/ml are made in microplates.
(§3) 50 µl of the dilutions 400 mg/ml, 40 mg/ml and 4mg/ml are transferred to the "cell-containing" microplate with a multichannel pipette. […]
(§4) Finally 50 µl of virus suspension is added to each well (with a repetitive "Eppendorf multipett"). [Test E-HIV-1; Test F-HIV-2; Test G-SIV; Test H-no virus].
(§5) Each plate has at least four wells with virus but no drug (virus control) and two wells without virus (medium control). The plate is put into a plastic bag to avoid evaporation and incubated for six days in CO2-atmosphere. 10 µl supernatant from each well is transferred with a multichannel pipette into a new microplate to which 40 ml VDB, (50 mM Tris-HCl pH = 7.6, 35 mM KCl, 4 mM DTT, 1 mM EDTA, 1.3% Triton X-100), have been added to each well. The addition of 50 ml RT-reaction mix, (10 ml culture supernatant, 40 ml VDB and 50 ml reaction mixture giving a final concentration of: 100 mM Tris-HCl pH = 7.6, 100 mM KCl, 4 mM MgCl2, 4 mM DTT, 275 mg/ml BSA/ml, 5 mg (rA)n(dT)12-18/ml and 0.3 mM ^3H dTTP (specific activity 18.000 cpm/pmol)) gives a final volume of […]/well. After 60 minutes of incubation the whole assay volume is transferred by use of a cell harvester to a filter mat prewetted with 5% TCA. The filter is washed in 5% TCA and rinsed once in ethanol. After drying the filter mat at 60°C for 30 min. each filter (96/mat) is punched out and put into counting vials 2 ml of scintillation fluid is added and the samples are counted (1 min) or the whole filter mat is put into a plastic bag, 10 ml of scintillation fluid is added and the filter mat is counted in a Beckman Betaplate counter. Percent reduction of RT activity is determined by comparing RT activity for virus control with the RT activity measured for each dilution of the compound.

HIV-2 = assay: Test F (HIV-2 RT), RT activity in supernatant of infected MT-4/H9 cells; type: cell-based; settings: Human immunodeficiency virus 2, H9, Test F
Method: as §1, §2, §3, §4, §5

HIV virus = assay: Test A (XTT), MT4 cells infected with HIV; type: cell-based; settings: for inhibition at 1 µg/mL / inhibition at 10 µg/mL / inhibition at 100 µg/mL: Human immunodeficiency virus 1, MT4, Test A; for % inhibition: Test A
Method: (§6) Tests A, B, C, and D (XTT)
(§7) MT4 cells in a medium of RPMI 1640, 5% FCS, penicillin/streptomycin are adjusted to 2x10^5 cells/ml and seeded into microplates (96 wells/plate) 100 µl cell suspension/well giving 2x10^4 cells/well. The compound to be tested is made into a 10 mg/ml mixture in DMSO and stored at -20°C. The compound in DMSO is diluted with medium containing 10% DMSO in a 10-fold dilution series to give 1 mg/ml, 10 mg/ml, and […] solutions. Further dilutions to 400, 40, 4 and 0.4 mg/ml are made in medium containing microplates. Fifty µl of the 400, 40, and 4 mg/ml are transferred to the cell-containing microplates with a multi-channel pipette (final concentration: 100, 10, and 1 mg/ml). Finally, 50 µl of virus suspension is added to each well (with a repetitive "Eppendorf" multipipett). Each plate has at least six wells with the following: [Test A: HIV virus; Test B: HIV(II) virus; Test C: SIV virus; Test D: No virus]; with no drug (virus control) and six wells without virus (medium control). The plate is put into a plastic bag and incubated for six days in CO2 atmosphere. To each well in the plate is added 50 µl of XTT ((2,3-bis[2-methoxy-4-nitro-5-sulfophenyl]-5-[(phenylamino)carbonyl]-2H-tetrazolium hydroxide), (1 mg/ml 0.01-0.02 mM N-metyl-phenazonium methosulfate). After six hours of incubation in CO2 atmosphere the plates are covered with adhesive plate sealers and gently mixed on a vortex. Optical densities are determined at a wavelength of 450 nm and a reference wavelength of 650 nm. The percent reduction of cytotoxocity caused by the virus infection is calculated as follows: (OD450 compound - OD450 inf cells)/(OD450 uninf cells - OD450 inf cells)x 100 [formula]

SIV = assay: Test G (SIV RT), RT activity in supernatant of infected MT-4/H9 cells; type: cell-based; settings: Simian immunodeficiency virus
Method: as §1, §2
50 µl of the dilutions 400 mg/ml, 40 mg/ml and 4mg/ml are transferred to the "cell-containing" microplate with a multichannel pipette. (Final concentration: 100, 10 and 1 mg/ml).
as §4, §5

SIV virus = assay: Test C (XTT), MT4 cells infected with SIV; type: cell-based; settings: Simian immunodeficiency virus, MT4, Test C
Method: as §6, §7

HIV(II) virus = assay: Test B (XTT), MT4 cells infected with HIV(II); type: cell-based; settings: Human immunodeficiency virus 1, MT4, Test B
Method: as §6, §7

physchem = settings: 66% dmf/h2o
HIV-1 [3] = assay: combination with AZT against HIV-1 in CEM cells, technique of Prichard and Shipman; type: cell-based; settings: combination of AZT and the compound
Method: The combination was evaluated against HIV-1 in CEM cells using the technique of Prichard and Shipman (Antiviral Research, 14, 181-206 (1990)).

MT4 cells = assay: Test D (XTT), MT4 cells, no virus; type: cell-based; settings: Homo sapiens
Method: as §6, §7

Structure (SMILES)	inhibition at 0.1 µg/mL (recombinant HIV-RT) [%]	inhibition at 1 µg/mL (recombinant HIV-RT) [%]	inhibition at 10 µg/mL (recombinant HIV-RT) [%]	inhibition at 1 µg/mL (HIV-1 [2]) [%]	inhibition at 10 µg/mL (HIV-1 [2]) [%]	inhibition at 100 µg/mL (HIV-1 [2]) [%]	inhibition at 1 µg/mL (HIV-2) [%]	inhibition at 10 µg/mL (HIV-2) [%]	inhibition at 100 µg/mL (HIV-2) [%]	inhibition at 1 µg/mL (SIV virus) [%]	inhibition at 10 µg/mL (SIV virus) [%]	inhibition at 100 µg/mL (SIV virus) [%]	inhibition at 0.1 µg/mL (HIV(II) virus) [%]	inhibition at 1 µg/mL (HIV(II) virus) [%]	inhibition at 10 µg/mL (HIV(II) virus) [%]	inhibition at 100 µg/mL (HIV(II) virus) [%]	other results
Fc1cccc(F)c1CCNC(=S)Nc1ccc(Cl)nn1 [Example 337, N-[2-(2,6-difluorophenyl)ethyl]-N'-[3-(6-chloro)pyridazinyl] thiourea]																	pKa ([1]; pKa, 66% DMF): 12.7
S=C(NCCc1ccccc1)Nc1nc2c(Cl)cccc2s1	9	6	1	11	8	97	6	72	93	0	2	17	18	22	100	36	inhibition at 0.1 µg/mL (HIV-2): 1%; inhibition at 1 µg/mL (HIV virus): 4%; inhibition at 10 µg/mL (HIV virus; 10 µg/ml): 19%; inhibition at 100 µg/mL (HIV virus; 100 µg/ml): 100%; inhibition at 1 µg/mL (SIV): 1%; inhibition at 10 µg/mL (SIV): 1%; inhibition at 100 µg/mL (SIV): 87%
NCCc1c(F)cccc1F [Example 312, 2-(2,6-Difluorophenyl)ethylamine]																	pKa [1]: 9.06
NCCc1ncccc1F [Example 417, 2-aminoethyl-3-fluoropyridine]																	pKa (physchem): 9.56
S=C(NCCc1ccccc1)Nc1nccs1 [drawing 35]																	concentration at the peak of synergy (HIV-1 [3]): 0.5 µg/mL; effect of the combination (HIV-1 [3]): synergistic effect
Cc1cn([C@H]2C[C@H](N=[N+]=[N-])[C@@H](CO)O2)c(=O)[nH]c1=O [AZT, reference compound]																	concentration at the peak of synergy (HIV-1 [3]): 0.005 µg/mL
S=C(NCCC1=CCCCC1)Nc1ccc(Cl)nn1 [Example 336, N-[2-(1-cyclohexenyl)ethyl]-N'-[3-(6-chloro)pyridazinyl]thiourea]																	pKa ([1]; pKa, 66% DMF): 12.8
Fc1ccc2nc(NC(=S)NCCc3ccccc3)sc2c1	33	38	39	51	16	95	77	62	97	2	5	19	4	40	12	93	inhibition at 0.1 µg/mL (HIV-1 [2]; 0.1 µg/ml): 1%; inhibition at 0.1 µg/mL (HIV-2): 4%; % inhibition (HIV virus; 100 µg/ml): 100% and 72%; inhibition at 1 µg/mL (MT4 cells; 1 µg/ml): 5%; inhibition at 10 µg/mL (MT4 cells; 10 µg/ml): 28%; inhibition at 100 µg/mL (MT4 cells; 100 µg/ml): 0%
S=C(NCCc1ccccc1)Nc1nc2ccc(Cl)cc2s1	12	18	18	1	51	96	1	79	98	0	0	21	24	9	67	27	inhibition at 1 µg/mL (HIV virus): 0%; inhibition at 10 µg/mL (HIV virus; 10 µg/ml): 63%; inhibition at 100 µg/mL (HIV virus; 100 µg/ml): 68%; % inhibition (HIV virus; 10 µg/ml): 67%; % inhibition (HIV virus; 100 µg/ml): 49%; inhibition at 1 µg/mL (SIV): 1%; inhibition at 10 µg/mL (SIV): 12%; inhibition at 100 µg/mL (SIV): 90%
